Assay results: patent publication US12521393B2, “Cytotoxicity targeting chimeras for CCR2-expressing cells” (GLAXOSMITHKLINE INTELLECTUAL PROPERTY DEVELOPMENT LIMITED, priority 2021, dated 2026)
Counter-ions that a name gives are not always drawn.

Tests used:
[1] = molecular target: anti-cotinine antibody (SEQ ID NO: 11/12, rabbit variable region with human IgG1 Fc DE mutation); assay: SPR binding of anti-cotinine antibody to ARM compounds, Biacore T200, 37° C. (Example 202); conditions: SPR Biacore T200, 37° C., pH 7.4, antibody SEQ ID NO: 11/12 captured on protein A; Kd in molar
Experimental: Anti-cotinine antibodies having a heavy chain sequence of SEQ ID NO: 11 and a light chain sequence of SEQ ID NO: 12 (rabbit variable region with human IgG1 Fc domain containing a DE mutation (S239D/1332E)) were captured on one or more flow cells of a protein A sensor chip (Cytiva) using a Biacore T200 while reserving flow cell 1 as a reference. Following capture, a 3000 second wait step was included to reduce drift during compound analysis. ARM compounds of Formula (I) were then injected at 100 μL/min with 200 and 2000 second association and dissociation times. The entire experiment was run at 37° C. with running buffer containing 10 mM HEPES pH 7.4, 150 mM NaCl, 0.005% P20 and 1% DMSO. ARM compounds of Formula (I) were titrated with a top concentration of 200 nM using a 3-fold 5-point dilution series and a corresponding 5-injection buffer cycle was run for blank subtraction. Data were double referenced by subtracting the response of the reference flow cell from that of the antibody-containing flow cell and subsequently subtracting the referenced blank sensorgrams. Following compound analysis, the surface was regenerated using a 30 second injection of pH 1.5 glycine at a flow rate of 30 μL/min after which antibody was re-captured. The experiment was run using Biacore T200 control software and evaluated using Biacore T200 Evaluation software. Curves were fit with a 1:1 kinetic binding model to obtain kon (1/Ms), koff(1/s), Kd (M) determined as koff/kon, and residence time determined as 1/koff (s).
Anti-cotinine antibody was tested for binding to ARMs compounds of Formula (I) of the invention in the above assay in or more experimental runs and the results are shown in Table 5 below. Affinity is reported as a pKd value. The pKd value is the negative log of the Kd value, wherein the Kd value is the dissociation constant measured in molar (M) as noted above. For compounds tested in more than one experimental run, the pKd value is reported as an average

[2] = tested on: endogenous target monocytes in human PBMC; assay: PBMC ex vivo monocyte depletion flow cytometry assay (Example 200); type: cell-based; conditions: with anti-cotinine antibody (SEQ ID NO: 11/12), 18-24 hours, EC50 in molar, read-out: Ex Vivo Depletion Assay pEC50 (converted)
How it was run: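 Monocyte depletion is reported as pEC50, averaged or given individually across runs, and read by flow cytometry staining CD45, CD14 and CD4 with a viability dye. Compounds, diluted four-fold over 11 points from 1 mM DMSO stocks, were combined with 30 μg/mL Fc-enhanced anti-cotinine antibody and human PBMC, then incubated 18-24 h at 37° C.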

[3] = molecular target: human alpha1 nicotinic acetylcholine (nACh) receptor (Homo sapiens, UniProt P02708); assay: Nicotinic acetylcholine receptor antagonism assay, IONFlux automated patch clamp (Example 203); type: cell-based
Experimental: Cells expressing human alpha1 nicotinic acetylcholine (nACh) receptor (nAChR) were washed and dissociated using Trypsin containing buffer. Cells were then washed and seeded at a density of 3-5 million cells/mL and allowed to grow for 3 days. Then, 60-80 μL of cells were added to plates and incubated with dose response of an ARM compound of Formula (I) with a top concentration of either 10 μM or 100 μM. The receptor was then stimulated via addition of acetylcholine (ACh) and activation of the receptor was monitored via the IONFlux automated patch clamp system. IonFlux Data Analyzer software was utilized to perform leak subtraction and measure (min) peak current amplitude.
Data processing: (1) Current values recorded for vehicle only applications in individual traps/patterns were subtracted from corresponding current amplitude values for control, test article and control+test article. (2) Control response was calculated as % of the average response of the 3rd out of total 3 ACh (10 mM) applications alone. In rare situations, if the 3rd ACh response was obscured due to technical artifacts, the 2nd and/or 1st ACh (10 mM) application was considered as control. The peak current amplitude generated in the presence of each test article concentration was then used to calculate the % inhibition as compared to control response (10 mM ACh alone). These estimates were further corrected for vehicle response and run down corrected by normalizing with time matched control responses (10 mM ACh alone). The corrected percentages were then fit with a non-linear function in GraphPad Prism 6 (or later versions) to determine the IC50.
Exclusion criteria: (i) any n's with poor recording quality, (ii) control current amplitude <500 pA or (iii) significant outliers, as determined by the Grubbs test.
ARMs compounds of Formula (I) of the invention were tested for antagonism of the nAChR in the above assay in […] experimental runs and the results are shown in Table 7 below. Antagonistic activity of the compounds of Formula (I) of the invention is reported as an IC50 value (half maximal inhibitory concentration) and the maximum percentage antagonism observed at the highest concentration of compound of Formula (I) tested, as indicated in Table 7. For compounds tested in more than one experimental run, the IC50 value is reported as an average

[4] = tested on: CCR2 expressing cells (CD11b+Ly6c+Hi) in peripheral blood; assay: In vivo depletion assay, flow cytometry of peripheral blood (Example 201); set-up: species or system human CCR2 knock-in mice (C57 background); conditions: hCCR2 knock-in mice, IV 0.1 mpk compound + 10 mpk anti-cotinine antibody (SEQ ID NO: 13/14), peripheral blood at 48 hr
How it was run: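 Flow cytometry of blood collected at study termination quantified percent depletion of CD11b+Ly6c+Hi cells and CCR2 expression, using surface markers CD45, CD3, CD11b, Ly6C, human CCR2 after Fc block, with 7AAD viability stain. Compound given in saline:DMSO:PBS formulation, optionally combined with anti-cotinine antibody, incubated 30 min before administration.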

Sequence of human alpha1 nicotinic acetylcholine (nACh) receptor (P02708 21-457): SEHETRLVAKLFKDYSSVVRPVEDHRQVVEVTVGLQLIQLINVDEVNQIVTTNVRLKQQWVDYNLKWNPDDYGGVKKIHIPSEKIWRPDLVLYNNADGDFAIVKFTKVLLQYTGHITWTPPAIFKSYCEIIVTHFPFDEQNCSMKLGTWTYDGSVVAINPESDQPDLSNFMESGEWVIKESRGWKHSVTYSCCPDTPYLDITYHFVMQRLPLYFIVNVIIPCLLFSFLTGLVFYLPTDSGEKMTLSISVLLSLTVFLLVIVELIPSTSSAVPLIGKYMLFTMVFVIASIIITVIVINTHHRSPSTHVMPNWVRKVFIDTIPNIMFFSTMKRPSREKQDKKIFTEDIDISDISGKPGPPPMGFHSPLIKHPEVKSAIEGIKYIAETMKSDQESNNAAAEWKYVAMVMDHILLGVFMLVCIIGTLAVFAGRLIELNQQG
Sequence of human alpha1 nicotinic acetylcholine (nACh) receptor (P11230 24-501 partner): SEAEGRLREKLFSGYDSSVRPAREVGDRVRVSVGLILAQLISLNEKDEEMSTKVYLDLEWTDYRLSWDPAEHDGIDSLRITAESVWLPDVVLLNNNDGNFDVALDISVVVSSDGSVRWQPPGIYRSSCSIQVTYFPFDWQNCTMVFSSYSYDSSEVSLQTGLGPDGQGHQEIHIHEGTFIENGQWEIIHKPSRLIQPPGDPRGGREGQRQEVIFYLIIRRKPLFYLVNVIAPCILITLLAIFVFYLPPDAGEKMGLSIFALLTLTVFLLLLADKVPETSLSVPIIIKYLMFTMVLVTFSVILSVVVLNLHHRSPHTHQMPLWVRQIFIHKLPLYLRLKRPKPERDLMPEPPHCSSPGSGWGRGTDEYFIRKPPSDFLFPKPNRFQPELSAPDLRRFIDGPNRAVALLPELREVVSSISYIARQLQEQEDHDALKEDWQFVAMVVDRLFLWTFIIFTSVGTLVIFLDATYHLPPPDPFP
Sequence of human alpha1 nicotinic acetylcholine (nACh) receptor (Q07001 22-517 partner): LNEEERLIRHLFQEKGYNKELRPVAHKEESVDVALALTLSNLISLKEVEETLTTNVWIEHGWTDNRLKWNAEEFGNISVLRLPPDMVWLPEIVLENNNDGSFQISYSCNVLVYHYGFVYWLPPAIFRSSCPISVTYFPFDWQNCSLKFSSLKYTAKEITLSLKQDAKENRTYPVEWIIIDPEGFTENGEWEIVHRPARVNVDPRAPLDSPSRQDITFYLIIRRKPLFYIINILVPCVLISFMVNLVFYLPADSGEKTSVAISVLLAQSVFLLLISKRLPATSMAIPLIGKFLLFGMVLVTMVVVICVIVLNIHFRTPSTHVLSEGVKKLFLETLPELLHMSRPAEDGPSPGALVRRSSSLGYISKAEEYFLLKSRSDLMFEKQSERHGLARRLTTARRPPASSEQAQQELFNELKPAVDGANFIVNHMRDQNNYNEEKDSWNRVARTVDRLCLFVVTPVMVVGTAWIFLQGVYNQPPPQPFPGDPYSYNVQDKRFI

Row | SMILES | pKd of Antibody for ARM Compound of Formula (I) [1] | EC50 [2] [nM] | IC50 ([3]; antagonism of ACh-stimulated human alpha1 nAChR current, patch clamp) [nM] | Emax at 10 µM ([3]; maximum percentage antagonism at maximum concentration tested 10 μM, read-out: Maximum Response) [%] | % Depletion of CCR2 expressing cells [4] [%]
1 | CC(C)N(C)[C@@H]1CC[C@H](N2CC[C@H](Nc3ncnc4ccc(C(F)(F)F)cc34)C2=O)[C@H](NC(=O)[C@H]2C[C@@H](NC(=O)CCO[C@H]3CC[C@H](OCCNC(=O)[C@H]4CC(=O)N(C)[C@@H]4c4cccnc4)CC3)C2)C1 [Example 115, (2S,3S)-N-(2-(((1S,4S)-4-(3-(((1S,3S)-3-(((1R,2S,5R)-5-(Isopropyl(methyl)amino)-2-((S)-2-oxo-3-((6-(trifluoromethyl)quinazolin-4-yl)amino)pyrrolidin-1-yl)cyclohexyl)carbamoyl)cyclobutyl)amino)-3-oxopropoxy)cyclohexyl)oxy)ethyl)-1-methyl-5-oxo-2-(pyridin-3-yl)pyrrolidine-3-carboxamide] | 9.363 | 0.158 |  |  | 
2 | CC(C)N(C)[C@@H]1CC[C@H](N2CC[C@H](Nc3ncnc4ccc(C(F)(F)F)cc34)C2=O)[C@H](NC(=O)[C@H]2CC[C@H](NC(=O)CCO[C@H]3CC[C@H](OCCNC(=O)[C@H]4CC(=O)N(C)[C@@H]4c4cccnc4)CC3)CC2)C1 [Example 113, (2S,3S)-N-(2-(((1R,4S)-4-(3-(((1R,4R)-4-(((1R,2S,5R)-5-(Isopropyl(methyl)amino)-2-((S)-2-oxo-3-((6-(trifluoromethyl)quinazolin-4-yl)amino)pyrrolidin-1-yl)cyclohexyl)carbamoyl)cyclohexyl)amino)-3-oxopropoxy)cyclohexyl)oxy)ethyl)-1-methyl-5-oxo-2-(pyridin-3-yl)pyrrolidine-3-carboxamide] | 9.767 | 3.16 |  |  | 
3 | CC(C)N(C)[C@@H]1CC[C@H](N2CC[C@H](Nc3ncnc4ccc(C(F)(F)F)cc34)C2=O)[C@H](NC(=O)[C@H]2C[C@@H](NC(=O)CCOCCOCCNC(=O)CNC(=O)[C@H]3CC(=O)N(C)[C@@H]3c3cccnc3)C2)C1 [Example 66, (2S,3S)-N-(2-((2-(2-(3-(((1S,3s)-3-(((1R,2S,5R)-5-(Isopropyl(methyl)amino)-2-((S)-2-oxo-3-((6-(trifluoromethyl)quinazolin-4-yl)amino)pyrrolidin-1-yl)cyclohexyl)carbamoyl)cyclobutyl)amino)-3-oxopropoxy)ethoxy)ethyl)amino)-2-oxoethyl)-1-methyl-5-oxo-2-(pyridin-3-yl)pyrrolidine-3-carboxamide] | 8.649 | 0.631 |  |  | 
4 | CC(C)N(C)[C@@H]1CC[C@H](N2CC[C@H](Nc3ncnc4ccc(C(F)(F)F)cc34)C2=O)[C@H](NC(=O)COCCNC(=O)[C@H]2CC[C@@H](NC(=O)CCOCCNC(=O)[C@H]3CC(=O)N(C)[C@@H]3c3cccnc3)CC2)C1 [Example 109, (2S,3S)-N-(2-(3-(((1S,4R)-4-((2-(2-(((1R,2S,5R)-5-(Isopropyl(methyl)amino)-2-((S)-2-oxo-3-((6-(trifluoromethyl)quinazolin-4-yl)amino)pyrrolidin-1-yl)cyclohexyl)amino)-2-oxoethoxy)ethyl)carbamoyl)cyclohexyl)amino)-3-oxopropoxy)ethyl)-1-methyl-5-oxo-2-(pyridin-3-yl)pyrrolidine-3-carboxamide] | 8.951 | 0.631 |  |  | 
5 | CC(C)N(C)[C@@H]1CC[C@H](N2CC[C@H](Nc3ncnc4ccc(C(F)(F)F)cc34)C2=O)[C@H](NC(=O)[C@H]2CC[C@@H](NC(=O)CCOCCNC(=O)COCCCNC(=O)[C@H]3CC(=O)N(C)[C@@H]3c3cccnc3)CC2)C1 [Example 175, (2S,3S)-N-(3-(2-((2-(3-(((1S,4s)-4-(((1R,2S,5R)-5-(Isopropyl(methyl)amino)-2-((S)-2-oxo-3-((6-(trifluoromethyl)quinazolin-4-yl)amino)pyrrolidin-1-yl)cyclohexyl)carbamoyl)cyclohexyl)amino)-3-oxopropoxy)ethyl)amino)-2-oxoethoxy)propyl)-1-methyl-5-oxo-2-(pyridin-3-yl)pyrrolidine-3-carboxamide] | 9.244 | 0.631 |  |  | 
6 | CC(C)N(C)[C@@H]1CCC(N2CC[C@H](Nc3ncnc4ccc(C(F)(F)F)cc34)C2=O)[C@H](NC(=O)CCOCCOCCOCCOCCOCCOCCOCCOCCNC(=O)[C@H]2CC(=O)N(C)[C@@H]2c2cccnc2)C1 (stereo partly drawn) [Example 42, (2S,3S)-N-(27-(((1R,2S,5R)-5-(isopropyl(methyl)amino)-2-((S)-2-oxo-3-((6-(trifluoromethyl)quinazolin-4-yl)amino)pyrrolidin-1-yl)cyclohexyl)amino)-27-oxo-3,6,9,12,15,18,21,24-octaoxaheptacosyl)-1-methyl-5-oxo-2-(pyriidn-3-yl)pyrrolidine-3-carboxamide] | 9.23 | 3.16 |  |  | 
7 | CC(C)N(C)[C@@H]1CC[C@H](N2CC[C@H](Nc3ncnc4ccc(C(F)(F)F)cc34)C2=O)[C@H](NC(=O)[C@H]2CC[C@@H](NC(=O)COCCOCCNC(=O)CNC(=O)[C@H]3CC(=O)N(C)[C@@H]3c3cccnc3)CC2)C1 [Example 171, (2S,3S)-N-(2-((2-(2-(2-(((1S,4s)-4-(((1R,2S,5R)-5-(Isopropyl(methyl)amino)-2-((S)-2-oxo-3-((6-(trifluoromethyl)quinazolin-4-yl)amino)pyrrolidin-1-yl)cyclohexyl)carbamoyl)cyclohexyl)amino)-2-oxoethoxy)ethoxy)ethyl)amino)-2-oxoethyl)-1-methyl-5-oxo-2-(pyridin-3-yl)pyrrolidine-3-carboxamide] | 8.7865 |  |  |  | 
8 | CC(C)N(C)[C@@H]1CC[C@H](N2CC[C@H](Nc3ncnc4ccc(C(F)(F)F)cc34)C2=O)[C@H](NC(=O)CCOCCN2CCC3(CCC(C(=O)NCCNC(=O)[C@H]4CC(=O)N(C)[C@@H]4c4cccnc4)CC3)CC2)C1 [Example 184, 3-(2-(3-(((1R,2S,5R)-5-(isopropyl(methyl)amino)-2-((S)-2-oxo-3-((6-(trifluoromethyl)quinazolin-4-yl)amino)450yridine450ne-1-yl)cyclohexyl)amino)-3-oxopropoxy)ethyl)-N-(2-((2S,3S)-1-methyl-5-oxo-2-(450yridine-3-yl)pyrrolidine-3-carboxamido)ethyl)-3-azaspiro[5.5]undecane-9-carboxamide, 3Formic acid salt] |  | 0.251 | 6390 | 69.2 | 85.99
